Experimental data from patent publication US20260224758A1, “ALPHA-SYNUCLEIN BINDERS AND METHODS OF USE” (Merck Sharp & Dohme LLC, priority 2023, published 2026).
Like-named read-outs stand apart in the source and are kept apart here.

Assays:
[1] = target: T1, triton-extracted alpha-synuclein from PD Tissue (Homo sapiens, UniProt P37840); assay: Alpha-synuclein tissue homogenate binding assay (Assay 1), displacement of [^3H]-1000; conditions: for Selectivity ratio (Assay 2/Assay 1): Aβ Tissue Ki / α-synuclein Tissue Ki; for Ki: read-out: α-synuclein Tissue Ki (Assay 1)
T1 construct: tissue Analytic Biological Services Inc; host or cells: human PD temporal cortex grey matter, Triton X-100 insoluble pellet
Procedure: Frozen human brain tissues from PD patients were purchased from Analytic Biological Services Inc. The samples were post-mortem tissues from donors with clinical diagnosis of late stage of PD. Alpha-synuclein, tau and amyloid burden was determined through a combination of immunohistochemistry on frozen thin coronal sections, as well as alpha Lisa-based quantification of protein levels in a detergent insoluble protein fraction. A tissue sample of temporal cortex was identified from one donor as having moderate to high alpha-synuclein burden, low amyloid and minimal to no tau pathology. The detergent insoluble fraction of temporal cortex from this patient was used to support homogenate binding studies. Grey matter was dissected out of the temporal cortex tissue with a dissecting blade and minced with fine dissecting scissors. […] Homogenates were centrifuged at 100,000×g for 45 minutes. The pellet was resuspended in TBS-TX buffer, using a Polytron at highest setting for 30 seconds at 4° C. Homogenates were centrifuged at 100,000×g for 45 minutes and the pellet was resuspended in TBS-TX buffer. A BCA protein assay was performed on the final homogenate to determine the protein concentration. […] For displacement a-synuclein binding assay, compounds and control were solvated in dimethyl sulfoxide (DMSO) and transferred using focused acoustic energy by an Echo 655 liquid handling instrument (Beckman Coulter, Indianapolis, IN) into designated wells of uniquely bar coded 96-well v-bottom low binding polypropylene microplates (Thermo Scientific, 249946). Compound dose response curves were prepared in a 10-point, 3-fold fashion within columns 2-11 of the microplate from high to low compound concentrations. […] Liquid-handling steps for dispensing insoluble fractions of PD brain homogenates and radioligand were performed using a Bravo automated liquid handling platform equipped with a 96LT disposable tip head (Agilent Technologies, Santa Clara. CA). […] The incubation was terminated by rapid filtration through UniFilter-96 GF/C microplates (pre-treated for 30 minutes with 0.2% Polyethylenimine at 4° C.) by using a FilterMate Harvester (PerkinElmer). […] The bottom of each UniFilter-96 GF/C microplate was adhesively sealed (PerkinElmer 6005199) prior to the addition of 50 μL MicroScint-20 liquid scintillation cocktail (PerkinElmer 6013621) to each well. A clear adhesive seal (TopSeal-A PLUS, PerkinElmer 6050185) was then applied to the top of each microplate and counted 1 minute/well on MicroBeta^2 system (PerkinElmer.

[2] = target: aggregated beta amyloid in AD tissue (Homo sapiens, UniProt P05067); assay: Competitive radioligand binding to pathological aggregated beta amyloid in AD tissue (Assay 2), displacement of [^3H]-105; conditions: Aβ-rich AD frontal cortex homogenate, [^3H]-105, Kd 11.0 nM
Chain of aggregated beta amyloid in AD tissue (P05067 672-711 limits assumed): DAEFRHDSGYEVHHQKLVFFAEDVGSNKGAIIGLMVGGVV
Procedure: Frozen human brain samples of Alzheimer's disease (AD) were purchased from Analytic Biological Services Inc. The samples were post-mortem tissue from donors with clinical diagnosis of AD and much of the white matter was dissected out of the frontal cortex in order to enrich the tissue preparations for gray matter. Brain homogenates of gray matter enriched frontal cortex were prepared by homogenizing the tissue in ice cold Phosphate Buffered Saline (PBS), pH 7.4 at 80 mg wet weight tissue per 1 ml for 45 seconds at 4° C., on setting 16 of Polytron. The homogenate was further diluted with ice cold PBS to 30 mg wet weight tissue per 1 ml and homogenized for an additional minute as described above. Homogenates were aliquoted in 5 ml/tube and stored at −70° C. until use.
Radioligand [^3H]-105, prepared as described in ACS Med. Chem. Lett., Vol. 2, pages 498-502, was used in this assay.
For Assay 2 unlabeled test compounds were dissolved in DMSO at 10 mM. Dilutions of tests compounds to various concentrations were made in 100% DMSO at 1000× final assay concentration and 0.225 μl aliquots were dispensed into assay plates. Brain homogenates were diluted to 0.5 mg/ml from original 30 mg/ml volume in Assay Buffer, and 200 μl were added to the assay plate for a final concentration of 100 ug wet weight/assay well. [^3H]-105 was prepared at 10× final concentration in Assay Buffer plus 20% DMSO and 25 μl was added to the assay plate for final assay concentration of 3.0 nM. The plates were incubated at 37° C. for 90 minutes. Unbound and bound ligand were separated by filtration of bound onto GF/B filter plates (pre-treated for 30 min with 0.1% PEI) using a Packard Filtermate and washing away unbound with 2.5 mil ice cold 5 mM Tris at pH 7.4. Filter plates were dried for 1 hr at 57° C. and 50 μl Microscint was added to each well of the plate. The plates were counted for ^3H cpm for 1 min per well using PerkinElmer TopCount.

[3] = insoluble fraction of PD brain homogenate, [^3H]-1000 3.0 nM, Kd 0.90 nM

Selectivity ratio (Assay 2/Assay 1) [1] | Ki [1, 3] [nM] | Ki [2] [nM] | Ki [1] [nM] | Molecule | Kd ([1]; radioligand [^3H]-1000, PD brain insoluble fraction) [nM]
13333 | 0.9 | ≥ 12000 |  | COC[C@H]1CN(c2ncc(/C=C/c3ccc(-n4ccnc4)nc3)cn2)CCN1c1ncccn1 [Example 2, (R,E)-5-(2-(6-(1H-imidazol-1-yl)pyridin-3-yl)vinyl)-2-(3-(methoxymethyl)-4-(pyrimidin-2-yl)piperazin-1-yl)pyrimidine] | 
7500 | 1.6 | ≥ 12000 |  | COC[C@H]1CN(c2ccccn2)CCN1c1ncc(/C=C/c2ccc(-n3cnnc3)nc2)cn1 [Example 5, (R,E)-5-(2-(6-(4H-1,2,4-triazol-4-yl)pyridin-3-yl)vinyl)-2-(2-(methoxymethyl)-4-(pyridin-2-yl)piperazin-1-yl)pyrimidine] | 
436 |  | 480 | 1.1 | COC[C@H]1CN(c2ncc(/C=C/c3ccc(-n4ccnc4)nc3)cn2)CCN1c1ncc(CO)cn1 [Example 7, (R,E)-(2-(4-(5-(2-(6-(1H-imidazol-1-yl)pyridin-3-yl)vinyl)pyrimidin-2-yl)-2-(methoxymethyl)piperazin-1-yl)pyrimidin-5-yl)methanol] | 
10909 | 1.1 | ≥ 12000 |  | COC[C@H]1CN(c2ncc(/C=C/c3ccc(-n4ccnc4)nc3)cn2)CCN1c1ncc(CF)cn1 [Example 8, (R,E)-5-(2-(6-(1H-imidazol-1-yl)pyridin-3-yl)vinyl)-2-(4-(5-(fluoromethyl)pyrimidin-2-yl)-3-(methoxymethyl)piperazin-1-yl)pyrimidine] | 
15000 | 0.8 | ≥ 12000 |  | COCc1cnc(N2CCN(c3ncc(/C=C/c4ccc(-n5ccnc5)nc4)cn3)[C@@H](COC)C2)nc1 [Example 9, (R,E)-5-(2-(6-(1H-imidazol-1-yl)pyridin-3-yl)vinyl)-2-(2-(methoxymethyl)-4-(5-(methoxymethyl)pyrimidin-2-yl)piperazin-1-yl)pyrimidine] | 
2449 |  | ≥ 12000 | 4.9 | OC[C@H]1CN(c2ncc(C#Cc3ccc(-n4ccnc4)nc3)cn2)CCN1c1ncccn1 [Example 10, (R)-(4-(5-((6-(1H-imidazol-1-yl)pyridin-3-yl)ethynyl)pyrimidin-2-yl)-1-(pyrimidin-2-yl)piperazin-2-yl)methanol] | 
 | 5.51 |  |  | Cn1cc(-c2ncc(C#Cc3cnc(N4CCN(c5ncncn5)C[C@H]4COCCF)nc3)cn2)cn1 [Example 96, (S)-2-(3-((2-fluoroethoxy)methyl)-4-(5-((2-(1-methyl-1H-pyrazol-4-yl)pyrimidin-5-yl)ethynyl)pyrimidin-2-yl)piperazin-1-yl)-1,3,5-triazine] | 
 |  |  | 4.31 | Cn1ccc(-c2ncc(C#Cc3cnc(N4CCN(c5ncc(F)cn5)[C@@H](COCCF)C4)nc3)cn2)n1 [Example 97, (R)-5-fluoro-2-(2-((2-fluoroethoxy)methyl)-4-(5-((2-(1-methyl-1H-pyrazol-3-yl)pyrimidin-5-yl)ethynyl)pyrimidin-2-yl)piperazin-1-yl)pyrimidine] | 
 | 1.96 |  |  | Cn1nccc1-c1ncc(C#Cc2cnc(N3CCN(c4ncncn4)[C@@H](COCCF)C3)nc2)cn1 [Example 98, (R)-2-(2-((2-fluoroethoxy)methyl)-4-(5-((2-(1-methyl-1H-pyrazol-5-yl)pyrimidin-5-yl)ethynyl)pyrimidin-2-yl)piperazin-1-yl)-1,3,5-triazine] | 
 |  |  |  | [^3H]-(S)-6-(1H-imidazol-1-yl)-N-(2-(2-methyl-4-(pyridin-2-yl)piperazin-1-yl)pyrimidin-5-yl)nicotinamide [[^3H]-1000, reference compound] | 0.9

Molecule | Selectivity ratio (Assay 2/Assay 1) [1] | Ki [1, 3] [nM] | Ki [2] [nM] | Ki [1] [nM] | Kd ([1]; radioligand [^3H]-1000, PD brain insoluble fraction) [nM]
COCCOC[C@H]1CN(c2ccccn2)CCN1c1ncc(/C=C/c2ccc(-n3ccnc3)nc2)cn1 [Example 6, (R,E)-5-(2-(6-(1H-imidazol-1-yl)pyridin-3-yl)vinyl)-2-(2-((2-methoxyethoxy)methyl)-4-(pyridin-2-yl)piperazin-1-yl)pyrimidine] | 100 | 1.8 | 180 |  | 
